Source: patent US20020165216A1, “Cobalt-porphyrin complexes and use thereof as an anti-obesity agent” (MitoKor, priority 2000, published 2002)
“Also recorded” adds a separate entry of the source.

How the values were obtained:
[1] = Oxygen consumption catalyzed by Co-P in the presence of ascorbate/TMPD (Clark oxygen electrode); settings: 2 mM ascorbate, 40 μM TMPD
Experimental: (Co-MP). Such activity can be readily determined by, for example, the assay disclosed in Example 16. In that assay, redox activity is measured by oxygen consumption catalyzed by a Co-P test compound in the presence of ascorbate and TMPD.
Ten mM stock solutions of a Co-P of this invention (i.e., test compound) were prepared using ethanol as solvent. KCl media consists of 125 mM KCl, 2 mM K2HPO4, 20 mM HEPES, pH 7.0. Oxygen consumption measurements were carried out using a Clark type oxygen electrode (Rank Brothers Ltd., Cambridge, UK) and assay solutions were magnetically stirred during the course of the experiments. To 500 μl of assay solution (KCl media supplemented with 2 mM sodium ascorbate and 40 μM […] (TMPD)) is added 2 μl of a stock solution of test compound (40 μM final concentration) and the oxygen consumption rate is followed for 2-4 min. Subsequently, a 5 μl aliquot of a freshly made catalase solution (100 mg/ml solution in KCl media) is added to determine if H2O2 is generated via redox cycling of the test compound.
Initial rates are calculated from oxygen consumption slopes and rate of a solvent control is subtracted. […] An aliquot of a 10 mM stock solution of Co-MP (final concentration of 40 μM) was added to assay buffer containing 2 mM of ascorbate and 40 μM of TMPD. […] Addition of catalase results in conversion of H2O2 present in the assay solution to O2 and H2O.
Stock solutions of the test compound were at 10 mM. Aliquots of the stock solutions were added to 500 μl of assay buffer containing 2 mM of ascorbate and 40 μM of TMPD.
Representative Co-P compounds of this invention were prepared by the procedures disclosed above, and assayed by the procedure of Example 16 to measure oxygen consumption catalyzed by the test compound in the presence of ascorbate/TMPD. […] The above procedure was then repeated for other representative Co-P compounds of this invention, but utilizing different ligands and/or R groups.

[2] = rat, in vivo; cited from earlier work
[3] = Lesion severity assay (nuchal injection site); assay type: in vivo, Male Sprague Dawley rats; settings: scale 0 no lesions to 5 worst lesions; 12 mM, 400 μl per 100 grams body weight, subcutaneous, nuchal area, 8 days
Experimental: Male Sprague Dawley rats (approximately 200 g) were purchased from Charles River Canada, Inc. and were shipped to the Animal Care Facility at the University of Vermont. Upon arrival they were housed in separate cages with corncob bedding and ad lib access to tap water and purina rat chow. The animal facility is maintained at a temperature of 71° F. +/− 1° F. with a 12-hour light/dark cycle, lights on at 6:00 am and off at 6:00 pm. Two days later (Day-3) all rats were shaved in the nuchal area and baseline color photographs of the nuchal area were taken (light halothane anesthesia was utilized to facilitate the shaving). Three days later (Day 0) experimental compounds were made up at 12 mM concentrations in vehicle (i.e., saline:PEG400:EtOH (5:4:1), pH 7.4). Animals were injected subcutaneously in the nuchal area with the various stock solutions at a dose of 400 μl per 100 grams body weight. Typical injection volumes, therefore, range from 1 to 1.5 ml per animal. Animals were injected using a modified Z-track technique to try and minimize outflow of injected compounds due to the high volume utilized. Each animal was weighed prior to injection and all injections were accomplished in an approximately two-hour period. […]
Means of body weights for each group were calculated and plotted over time (FIG. 9A), as were numerical means of the lesion severity index (FIG. 9B). […]

[4] = test system: SH-SY5Y neuroblastoma cells; assay: Cellular assay for generation of reactive oxygen species (ROS); assay type: cell-based; settings: 30 minutes with test compound
Experimental: All cell culture reagents were incubated in a water bath at 37° C. for approximately 30 minutes. Existing media from a near confluent tissue culture flask containing SH-SY5Y neuroblastoma cells was aspirated using a flame sterilized glass transfer pipette attached to a trapped vacuum apparatus. Calcium free PBS buffer was pipetted into the tissue culture flask (2 ml for a 75 cm2 flask, 3 ml for a 175 cm^2 flask). The flask was tipped slightly to ensure that the buffer covers the cell culture and then the buffer was removed by aspiration. Trypsin media was pipetted into the tissue culture flask (2 ml for a 75 cm^2 flask, 3 ml for a 175 cm^2 flask) and evenly spread to ensure that the trypsin covered the cell culture. The cell culture was incubated with trypsin media for 4-6 minutes at room temperature. After cells were released from the flask, the flask was tilted to one corner. Using the existing media within the flask, the aggregated cells were collected towards one corner and repeatedly pipetted to obtain a single cell suspension. The cell suspension was transferred with a pipette into a 15 ml conical shaped centrifuge tube then cell culture media was added to the suspension up to a total volume of 14 ml. Ten μl aliquots were withdrawn and the cells were counted using a hemocytometer. The suspension was centrifuged at 200×g for 10 minutes, the supernatant was aspirated off, and the cell pellet was resuspended at 3.75×10^5 cells/ml in cell culture medium. Two hundred μl of cell suspension were aliquoted per well in the 96 well dish to obtain a final cell number of 75,000 cells per well. The plates were incubated overnight at 37° C. and 5% CO2 in a humidified cell incubator.
The medium was carefully removed from the wells by aspiration with an 18 g needle. The wells were gently rinsed once with 200 μl of warm Hanks balanced saline solution (HBSS, Gibco-BRL). […]
Stock solutions of test compound, such as Co-PP, Co-MP, or a Co-P of this invention, and of an H2O2 scavenger such as ebselen, were typically prepared in dimethylformamide or dimethylsulfoxide and diluted further into working concentrations using HBSS. […] The plate was read immediately in Cytofluor model 2350 system (Millipore; excitation wavelength: 485 nm; emission wavelength: 530 nm) for a 0 min timepoint reading. The cells were incubated for 30 minutes at room temperature with test compound following which a 30 min reading was taken. The change in RMF over the 30 minutes period was calculated for each well. […] The plate was then read in the Cytofluor (excitation wavelength: 360 nm; emission wavelength: 460 nm) and the Hoechst fluorescence values were used to normalize the DCFC-DA RMF data.

[5] = Weight loss assay; assay type: in vivo, Male Sprague Dawley rats; settings: 12 mM in vehicle, 400 μl per 100 grams body weight, subcutaneous, nuchal area, 8 days
Experimental: Male Sprague Dawley rats (approximately 200 g) were purchased from Charles River Canada, Inc. and were shipped to the Animal Care Facility at the University of Vermont. Upon arrival they were housed in separate cages with corncob bedding and ad lib access to tap water and purina rat chow. The animal facility is maintained at a temperature of 71° F. +/− 1° F. with a 12-hour light/dark cycle, lights on at 6:00 am and off at 6:00 pm. Two days later (Day-3) all rats were shaved in the nuchal area and baseline color photographs of the nuchal area were taken (light halothane anesthesia was utilized to facilitate the shaving). Three days later (Day 0) experimental compounds were made up at 12 mM concentrations in vehicle (i.e., saline:PEG400:EtOH (5:4:1), pH 7.4). Animals were injected subcutaneously in the nuchal area with the various stock solutions at a dose of 400 μl per 100 grams body weight. Typical injection volumes, therefore, range from 1 to 1.5 ml per animal. Animals were injected using a modified Z-track technique to try and minimize outflow of injected compounds due to the high volume utilized. Each animal was weighed prior to injection and all injections were accomplished in an approximately two-hour period. No anesthesia was utilized for injections.
Animals subsequently underwent daily weighing with a Mettler 6 second integrating balance and had ad lib access to tap water and purina rat chow. At various intervals after injections, the nuchal area of rats was again photographed. […] The scale used was 0 for no lesions, 5 for the worst lesions with breakdown of the skin and open flow of exudates. Grades in-between were estimated by the operator based on the size and severity of the lesion. […] After 8 days, final photographs were taken and all animals were euthanized, marking the end of the experiment.
Means of body weights for each group were calculated and plotted over time (FIG. 9A), as were numerical means of the lesion severity index (FIG. 9B). In FIGS. 9A and 9B, C=noninjected control, V=vehicle injected control, A=Co-MP, E=Cpd. No. (1-6) and F=Cpd. No. (4-4). […] Cpd.

Substance: cobalt mesoporphyrin [Co-MP]
- Relative Rate (oxygen consumption), effect of ligand ([1]; Table 1, Co-MP with L1 = L2 varied, 40 μM test compound, normalized to chloride salt of Co-MP = 1): 1 (assigned value)
- Relative Rate (oxygen consumption), effect of ligand and R5 moiety ([1]; Table 2, 40 μM test compound, normalized to chloride salt of Co-MP = 1): 1 (assigned value)
- Relative Rate (oxygen consumption), effect of ligand, R5 and A moiety ([1]; Table 3, 40 μM test compound, normalized to chloride salt of Co-MP = 1): 1 (assigned value)
- Relative Rate (oxygen consumption), effect of ligand, R5, A and n moiety ([1]; Table 4, 40 μM test compound, normalized to chloride salt of Co-MP = 1): 1.0 (assigned
- O2 consumption / redox cycling (in words) ([1]; cell free ascorbate/TMPD system): immediate depletion of dissolved O2; also recorded: triggers robust consumption of O2
- body weight regulating effect compared with Co-PP [2]: comparable biological profile
- lesion severity [3]: greatest lesion severity
- generation of reactive oxygen species (DCFC-DA fluorescence) [4]: reactive oxygen species were induced
- body weight response [5]: greatest body weight response
